Test results as given in patent US20150125550A1, “APPLICATION OF 2,9-DI-SEC-BUTYL-1,10-PHENANTHROLINE AS A GLIOBLASTOMA TUMOR CHEMOTHERAPY” (priority 2013, published 2015).
Like-named read-outs stand apart in the source and are kept apart here.

What was measured:
GL-26 glioma = experiment: In-vivo intracranial GL-26 glioma model; set-up: species or system C57BL/6 mice
Procedure: Female C57BL/6 mice were obtained from Jackson Laboratories and maintained in a pathogen free environment under IACUC established protocols at the University of California Riverside. Mice were anesthetized with continuous administration of 2.5% isofluorane. Cultured GL-26 cells were harvested by trypsinization and 90,000 GL-26 cells in 3 μL of sterile Na+/K+ balanced PBS were injected intracranially. The injection was administered 1 mm anterior and 2 mm lateral to the junction of the coronal and sagittal sutures (bregma), at a depth of 2 mm using a stereotactic mouse frame. Care was taken in alternating injection order and group assignment (treated vs. non-treated) to assure equal GL-26 cell viability between the two treatment groups. SBP was administered intravenously through the retro-orbital route at a concentration of 10 mg/kg in 200 μL sterile Na+/K+ balanced PBS. Drug was administered one, seven, and 13 days after tumor implantation.
(§1) Histology: For brain tumor histology, mice were perfused intracardially with 4% formaldehyde in Na+/K+ balanced PBS and brains were extracted, incubated in 4% formaldehyde overnight followed by 30% sucrose in Na+/K+ balanced PBS. Brains were flash frozen in isopentane, embedded in optimal cutting temperature compound (OCT), cryosectioned in coronal sections (12 μm) and stained with hematoxylin and eosin. Another cohort of equivalently drug-treated mice was used for liver, lung and gut histology. The mice were then sacrificed on day 19, and the liver, lung and gut tissues were collected and placed in 4% formaldehyde in Na+/K+ balanced PBS overnight. The organs were then placed for 48 hrs in 70% EtOH before paraffin embedding and sectioning at 6 μm. Sections were then stained with hematoxylin and eosin and pathology was assessed blindly and independently by a trained pathologist. A TUNEL staining kit was obtained from TREVIGEN (NeuroTACS II In Situ Apoptosis Detection Kit, Cat#4823-30-K) and used for both ex-vivo slices and in-vitro staining according to manufacturers instructions.

GL-26 glioma cells [1] = experiment: TUNEL apoptosis staining of cultured cells; type: cell-based, murine (C57BL/6)
Procedure: as §1

GL-26 glioma cells [2] = experiment: SRB growth assay, GL-26 glioma cells, 48 hr drug incubation; type: cell-based, murine (C57BL/6); details: for IC50: SRB, read-out: IC50 against GL-26 tumor cells
Procedure: (§2) The murine (C57BL/6) glioma cell line, GL-26, which is highly tumorigenic in the C57BL/6 mice. GL-26 cells were cultured in DMEM/F12 supplemented with 10% FCS, 1% penicillin/streptomycin, 1% L-glutamine and 1% non-essential amino acids. Human foreskin fibroblasts (HFFs) were cultured in DMEM/F12 supplemented with 10% FCS and 1% penicillin/streptomycin. Primary murine astrocytes were purified from C57BL/6 neonate brains and cultured in DMEM/F12 supplemented with 10% FCS, 1% non-essential amino acids, 1% Lglutamine, 50 IU/ml penicillin, […] and 10 mM Hepes buffer.
(§3) The sulforhodamine B (SRB) cytotoxicity assays were adapted from Skehan et al. (22). Briefly, either HFF, primary astrocytes or GL-26 cells were plated in 96-well plates at a density of 4,000 cells/well in a volume of 100 µL overnight at 37° C. and 5% CO2. DMSO stock solutions of SBP, MSBP or TMZ were used at a concentration range of 0.1-25 μM for 48 hr before the supernatant was discarded and the cells were fixed for 1 hr with 10% cold trichloroacetic acid (100 μL, per well). Cells used in recovery assay received fresh media for 48 hrs following the 48 hr drug incubation. The plate was then washed 5 times with de-ionized water, air dried, and stained with 0.4% SRB for 10 min (50 μL, per well). After washing 5 times in 1% acetic acid and air-drying, bound SRB was dissolved in 10 mM unbuffered Tris base (pH 10.5; 100 μL, per well). Bound SRB was then read by absorbance at 492 nm on a SpectraMax plate reader (Molecular Devices). The percent survival was then calculated based upon the absorbance values relative to control wells (0 μM SBP in 0.1% DMSO).

[3] = test system: primary murine astrocytes; experiment: SRB toxicity assay on primary murine astrocytes; type: cell-based, murine (C57BL/6); details: Mus musculus, Astrocyte
Procedure: as §2, §3

[4] = Peripheral pathology and liver toxicity in non-tumor bearing mice; type: in vivo, C57BL/6 mice
Procedure: as §1
Intra-cardial blood was collected from the non-tumor bearing mice and subjected to centrifugation for 10 minutes to collect the serum. Aspartate transaminase and Alanine transaminase levels were measured in the serum using Bio Scientific (3913 Todd Lane Suite 312 Austin, Tex.) colorimetric kits (Cat#5605-01 and 3460-08 respectively).
To test if the low level of growth inhibition noted in HFF cells translated into lower systemic toxicity in-vivo, non-tumor bearing control and treatment groups of mice were treated with saline and SBP (10 mg/kg), respectively, on days one, seven, and 13. On day 19 following the first SPB or saline injection, the liver, lungs and proximal small intestine were collected for histopathological analysis.

[5] = test system: A549 and H1703 lung cancer lines, and 886LN, Tu212, and Tu686 head/neck cancer lines; details: head-neck and lung tumor lines; cited from earlier work
[6] = 10 mg/kg days 1, 7, 13, day 19, non-tumor bearing mice

CCC(C)c1ccc2ccc3ccc(C(C)CC)nc3c2n1 (stereo not drawn) [Compound 1, 2,9-di-sec-butyl-1,10-phenanthroline]
body weight regained, % of initial weight (GL-26 glioma; 10 mg/kg i.v. days 1, 7, 13, 19-day trial): 98.1±3.4%
tumor section area (pixel area) at the largest tumor cross-section (GL-26 glioma; 10 mg/kg i.v. days 1, 7, 13, sacrificed day 19, N=3): 5489±1369
in situ TUNEL staining of brain tumor sections (GL-26 glioma; day 19): dark brown cytoplasmic and nuclear staining indicative of cell necrosis and increased DNA fragmentation
tumors in treated mice smaller than in untreated control mice (GL-26 glioma; mouse, in vivo): 5-10 times
apoptosis (TUNEL) in cultured GL-26 cells (GL-26 glioma cells [1]): kills GL-26 cells by inducing apoptosis
inhibition at 6 µM (GL-26 glioma cells [2]; Mus musculus, GL26, 6 μM, read-out: GL-26 cell growth inhibition): 66 ± 1%
inhibition at 25 µM (GL-26 glioma cells [2]; Mus musculus, GL26, 25 μM, read-out: GL-26 cell growth inhibition): 67 ± 0.5%
IC50 (GL-26 glioma cells [2]; Mus musculus, GL26, 48 h): 3 to 6 µM
IC50 (GL-26 glioma cells [2]; listed as SBP): 3 µM
inhibition at 6 µM ([3]; 6 μM, 48 hours, read-out: astrocyte growth inhibition): 18%
inhibition at 25 µM ([3]; 25 μM, 48 hours, read-out: astrocyte growth inhibition): 37.3 ± 0.9%
IC50 ([3]; not reached at 25 μM, read-out: IC50 on non-cancerous glial cells (astrocytes)): > 25 µM
histopathology, duodenum ([4]; 10 mg/kg days 1, 7, 13, day 19): no general pathology
histopathology, liver ([4]; 10 mg/kg days 1, 7, 13, day 19): some endothelial damage, but no overt hepatocyte damage
histopathology, lung ([4]; 10 mg/kg days 1, 7, 13, day 19): no overt pathology
serum alanine transaminase (ALT) [4, 6]: 49.71±14.61 U/L
serum aspartate transaminase (AST) [4, 6]: 212.3±14.62 U/L
side effects in healthy mice ([4]; mouse, in vivo): did not appear to experience any significant side effects
IC50 times lower than cisplatin [5]: 20-100 times
IC50 times lower than the parent gold(III) complex [5]: 4-14 times
in-vitro IC50 values [5]: in the nanomolar concentration regime
